22 compounds from patent EP0465913B1, “Diaminotrifluoromethylpyrimidine derivatives, process for their production and phospholipase A2 inhibitor containing them” (ISHIHARA SANGYO KAISHA, LTD., priority 1990, dated 1992) can be followed below.

Molecules are shown by their SMILES. Read-outs that look alike come from different tables or passages of the source.

Series [1] deals with T1, Porcine pancreatic phospholipase A2 (Sus scrofa, UniProt P00592).
T1 construct: purchased Boehringer Mannheim·Yamanouchi K.K. 161454·122416
T1 sequence (P00592 23-146): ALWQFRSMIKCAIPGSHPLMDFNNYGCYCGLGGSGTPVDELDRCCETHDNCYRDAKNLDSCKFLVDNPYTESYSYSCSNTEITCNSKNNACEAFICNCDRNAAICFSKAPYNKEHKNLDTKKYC
Nature of the series: Phospholipase A2 inhibitory activity, method A (egg yolk lecithin substrate). The class given is biochemical. Conditions: 1,000 ppm, 37°C for 30 minutes, read-out: % inhibition of PLA2 (1,000 ppm). As to the method:
To 10 mg of egg yolk lecithin (manufactured by Wako Pure Chemical Industries Ltd.), 1 ml of glycerine, 2 ml of a 50 mM Tris-HCl buffer solution (pH7.5) [Tris(hydroxymethyl)aminomethane (manufactured by Nacalai Tesque K.K.) was adjusted to pH7.5 with hydrochloric acid], 0.5 ml of a 150 mM calcium chloride solution (calcium chloride was dissolved in a 50 mM Tris-HCl buffer solution) and 0.5 ml of a 0.05% Triton-X100 (manufactured by Nacalai Tesque K.K.) solution (Triton-X100 was dissolved in a 50 mM Tris-HCl buffer solution), were added and dispersed by an agate mortar or dispersed by an ultrasonic processor (Model W-225, manufactured by Heat System-Ultrasonics, Inc.) for 5 minutes (30W) to obtain a substrate.
(§1) Porcine pancreatic phospholipase A2 [(161454·122416) manufactured by Boehringer Mannheim·Yamanouchi K.K.] was used.
To a 96 well microtitration plate (flat bottom, manufactured by Sumitomo Bakelite Medical Co., Ltd.), 40 µl of the substrate, 5 µl of a solution prepared by dissolving 10 mg of a test compound in 500 µl of dimethylsulfoxide, followed by an addition of 500 µl of a 50 mM Tris-HCl buffer solution, and 5 µl of an enzyme solution of 20 ng/ml (prepared by diluting the enzyme in a 50 mM Tris-HCl buffer solution), were added and reacted at 37°C for 30 minutes. After termination of the reaction, the released free fatty acid was quantitatively analyzed in accordance with the ACS-ACOD (acyl CoA synthetase-acyl CoA oxidase) method [a kit of NEFA C test wako (manufactured by Wako Pure Chemical Industries, Ltd.) was used]. The quantitative analysis was made by means of Microplate ELISA Reader (Model 2550EIA Reader, manufactured by Bio-Rad Laboratories) at a wavelength of 540 nm. Separately, such experiments as mentioned above, were carried out at various concentrations (2 µg/ml, 1 µg/ml and 0.5 µg/ml) of phospholipase A2 without a test compound. Then, the concentration of the free fatty acid versus the concentration of phospholipase A2 was plotted.
(§2) From this standard curve, the apparent concentration of phospholipase A2 in the case with a test compound, was read. Then, the percent inhibition of the enzyme was calculated by the following formula. Percent inhibition (%) = (l -(A)/(B)) x 100 [formula] • A: Apparent enzyme concentration when a test compound is added. • B: True enzyme concentration when a test compound is added.

Series [2] has as its system experimental acute pancreatitis model. Nature of the series: Effects against acute pancreatitis (Test Example 8, closed duodenal loop method, lesion scores). The class given is in vivo, Crj-CD male rats. The following applies: sodium salt, 6 hours after ventrotomy; for inhibition in vivo at 10 mg/kg: Rattus norvegicus, 10 mg/kg single intravenous injection. As for the experimental part: Using Crj-CD male rats, each test group consisted of 3 rats. An experimental acute pancreatitis model was prepared by a closed duodenal loop method under anethesia with halothane (manufactured by Hoechst Japan) and nitrous oxide (manufactured by Sumitomo Seika K.K.) applied by a general inhalation anesthesia machine (Model EM2 and halothane evaporator F-Model). Each compound (subjected to the test in the form of a sodium salt) was continuously intravenously injected into the tail vein in an amount of 0.4 ml/100 g to 0.6 ml/100 g at a rate of 0.05 ml per minute by a pump (Technicon AA II Proportioning Pump III, manufactured by Technicon Instruments Corporation) or rapidly intravenously injected. No injection was made to a control group. Gross pathological examination was conducted upon expiration of 6 hours after the ventrotomy in the case of the group to which the compound was administered. With respect to each of four lesions among pancreatic lesions i.e. petechia, ecchymosis, pancreatic necrosis and abdominal fatty necrosis, the grade and the distribution of lesions were scored with five grades of 0, 0.5, 1, 2 and 3 (severe lesions are 3). The sum of all lesions was designated as scores of pancreatitis lesions, and the sum of the score of petechia and the score of ecchymosis only was designated as scores of hemorrhagic lesions. The pancreatitis inhibition rate (%) and the hemorrhage inhibition rate (%) were obtained by the following formulas, and the results are shown in Table 13. Pancreatitis inhibition rate (%) = (l -(H)/(G)) x 100 [formula] • H: Scores of pancreatitis lesions of the group to which a test compound was administered. • G: Scores of pancreatitis lesions of the control group. Hemorrhage inhibition rate (%) = (l -(J)/(I)) x 100 [formula] • J: Scores of hemorrhagic lesions of the group to which a test compound was administered. • I: Scores of hemorrhagic lesions of the control group.

The test system of a further series is carrageenin edema. Nature of the series: Inhibitory activity on carrageenin edema. The class given is in vivo, Wistar male rats. Conditions: rat; dose 50 mg/kg orally; paw swelling volume three hours after carrageenin. As to the method: Using Wistar male rats (body weight: about 100 g), each test group consisted of 5 rats. A test compound was mixed with Tween 80 [polyoxyethylenesorbitan monooleate (manufactured by Nacalai Tesque K.K.)], and distilled water was added thereto to obtain a 2% Tween 80 suspension, or it was dissolved in the form of a salt in water to obtain an aqueous solution. Either the suspension or the aqueous solution was orally administered in an amount of 200 mg/kg, 100 mg/kg, 50 mg/kg or 25 mg/kg. One hour later, 0.1 ml of a 1% λ-carrageenin solution dissolved in a physiological saline was injected subcutaneously to the right hind paw of each rat to cause inflamation. Three hours later, the paw volume was measured by a paw volume measuring device (manufactured by Ugobasiee K.K.). A swelling volume was obtained from the difference from the value before the inflammation. Inhibition rate (%) = (l -(F)/(E)) x 100 [formula] • F: Average swelling volume in the group to which a test compound was administered. • E: Average swelling volume in the control group.

Series [3] is described as follows: Acute toxicity, intravenous injection (LD50). The class given is in vivo. Conditions: mouse, in vivo, iv, ddy male mice, sodium salt, mortality over one week. As to the method: Administration route: Intravenous injection
Using ddy male mice (body weight: 25 - 30 g), each test group consisted of 5 mice. A test compound was dissolved in the form of a sodium salt in a physiological saline or in a 5% glucose aqueous solution, and intravenously injected in an amount of 0.1 ml/10 g body weight. After the injection, the mortality rate was obtained over one week, and the median lethal dose LD50 (mg/kg) was determined.

Series [4] concerns the target T1, Porcine pancreatic phospholipase A2. Nature of the series: Phospholipase A2 inhibitory activity, method B (L-α-dipalmitoylphosphatidylcholine substrate). Conditions: 1,000 ppm, 37°C for 30 minutes, read-out: % inhibition of PLA2 (1,000 ppm). The class given is biochemical. As to the method: To a solution prepared by dissolving 9.2 mg of L-α-dipalmitoylphosphatidylcholine (manufactured by Nichiyu Liposome K.K.) in 0.5 ml of chloroform, a solution prepared by dissolving 32 mg of sodium cholate (manufactured by Wako Pure Chemical Industries, Ltd.) in 0.5 ml of methanol, was added, followed by mixing. The solvent of the mixture was removed under a nitrogen stream, and then 2.5 ml of a 250 mM sodium chloride solution [prepared by dissolving sodium chloride in a 100 mM Tris-HCl buffer solution {tris(hydroxymethyl)aminomethane (manufactured by Nacalai Tesque K.K.) was adjusted to pH8.0 with hydrochloric acid}] was added thereto, and the mixture was dissolved under stirring to obtain a substrate.
as §1
To a 96 well microtitration plate, 20 µl of a solution containing calcium chloride, bovine serum alubmin (manufactured by Sigma Chemical, Co.) and a Tris-HCl buffer solution (pH8.0) at concentrations of 25 mM, 4.5 mg/ml and 100 mM, respectively, 5 µl of a solution prepared by dissolving 10 mg of a test compound in 500 µl of diemthylsulfoxide, followed by an addition of 500 µl of a 200 mM Tris-HCl buffer solution, 5 µl of an enzyme solution (10 µg/ml) [prepared by dissolving the enzyme in a bovine serum alubmin solution (prepared by dissolving bovine serum alubmin in a 100 mM Tris-HCl buffer solution at a concentration of 1 mg/ml)] and 20 µl of the substrate, were added and reacted at 37°C for 30 minutes. After termination of the reaction, the released free fatty acid was quantitatively analyzed in accordance with the ACS-ACOD (acyl CoA synthetase-acyl CoA oxidase) method [a kit of NEFA C test wako (manufactured by Wako Pure Chemical Industries, Ltd.) was used]. The quantitative analysis was made by means of Microplate ELISA Reader (Model 2550EIA Reader, manufactured by Bio-Rad Laboratories) at a wavelength of 540 nm. Separately, such experiments as mentioned above, were carried out at various concentrations (1 µg/ml, 0.75 µg/ml, 0.5 µg/ml and 0.25 µg/ml) of phospholipase A2 without a test compound. Then, the concentration of the free fatty acid versus the concentration of phospholipase A2 was plotted.
as §2

Setting [5] is: read-out: Inhibition rate of hemorrhagic lesions (%).
Setting [6] is: read-out: Inhibition rate of pancreatitis lesions (%).

In the case of `O=C(Nc1ncc(C(F)(F)F)cc1NC(=O)C(Cl)(Cl)Cl)C(F)(F)F` [Compound No. 30, N-(3-trichloroacetylamino-5-trifluoromethyl-2-pyridyl)trifluoroacetamide], in series [1], the inhibition at 1000 ppm turned out to be 87%.

On to `CS(=O)(=O)Nc1ncc(C(F)(F)F)cc1NC(=O)C(F)(F)C(F)(F)C(F)(F)F` [compound 14], for which the inhibition at 1000 ppm in series [1] worked out at 54%. In addition, the “Inhibition rate of hemorrhagic lesions (%)” value in series [2] (19 mg/kg continuous intravenous injection) was 52%.

With `CCOCCC(=O)Nc1cc(C(F)(F)F)cnc1NC(=O)CCOCC` [compound 26], in series [1], the inhibition at 1000 ppm amounted to 35%.

In the case of `O=C(Nc1ncc(C(F)(F)F)cc1NC(=O)C(F)(F)F)C(Cl)Cl` [compound 27], the inhibition at 1000 ppm in series [1] came out at 62%.

Consider `O=C(Nc1cc(C(F)(F)F)cnc1NC(=O)C(Cl)Cl)C(Cl)Cl` [compound 28], for which, in series [1], the inhibition at 1000 ppm was 71%. Moreover, in the series with carrageenin edema, the “Inhibition rate (%)” value is 25%.

Turning to `O=C(Nc1cc(C(F)(F)F)cnc1NC(=O)C(F)(F)F)C(Cl)Cl` [compound 29], in series [1], the inhibition at 1000 ppm was 47%.

With `O=C(Nc1cc(C(F)(F)F)cnc1NC(=O)C(F)(F)C(F)(F)F)c1ccccc1` [compound 32], in series [1], the inhibition at 1000 ppm was found to be 50%.

As for `CCOC(=O)Nc1ncc(C(F)(F)F)cc1NC(=O)OCc1ccccc1` [compound 38], in series [1], the inhibition at 1000 ppm came out at 35%.

Turning to `CS(=O)(=O)NNc1ncc(C(F)(F)F)cc1NC(=O)C(F)(F)C(F)(F)F` [compound 40], the LD50 at 168 h in series [3] was in the range of 50 to 100 mg/kg.

Consider `COc1ccc(C(=O)Nc2cc(C(F)(F)F)cnc2NS(C)(=O)=O)cc1` [compound 44], for which the inhibition at 1000 ppm in series [1] was determined as 43%; in series [4], 64%.

Take `CS(=O)(=O)Nc1ncc(C(F)(F)F)cc1NC(=O)CCCCCl` [compound 46]: the inhibition at 1000 ppm in series [1] is 47%. Also, the “Inhibition rate (%)” value in the series with carrageenin edema was determined as 30%. In series [2] (46 mg/kg continuous intravenous injection), the “Inhibition rate of hemorrhagic lesions (%)” value worked out at 36%.

Turning to `CCS(=O)(=O)Nc1ncc(C(F)(F)F)cc1NC(=O)c1ccccc1` [compound 48], in series [1], the inhibition at 1000 ppm stood at 48%.

For `CC(C)S(=O)(=O)Nc1ncc(C(F)(F)F)cc1NC(=O)C(Cl)(Cl)Cl` [compound 50], in series [1], the inhibition at 1000 ppm amounted to 78%.

Consider `CC(C)S(=O)(=O)Nc1ncc(C(F)(F)F)cc1NC(=O)C(F)(F)C(F)(F)F` [compound 51], for which the inhibition at 1000 ppm in series [1] came out at 63%.

On to `CCCCS(=O)(=O)Nc1ncc(C(F)(F)F)cc1NC(=O)C(F)(F)C(F)(F)F` [compound 52], for which the inhibition at 1000 ppm in series [1] turned out to be 49%.

For the compound `CCCCS(=O)(=O)Nc1ncc(C(F)(F)F)cc1NC(=O)C1CCCCC1` [compound 53], the inhibition at 1000 ppm in series [1] was 37%; in series [4], 100%.

In the case of `CCOC(=O)NC(=S)Nc1cc(C(F)(F)F)cnc1NC` [compound 54], the inhibition at 1000 ppm in series [1] was 37%.

As to `CS(=O)(=O)Nc1ncc(C(F)(F)F)cc1NC(=O)c1cccc(F)c1` [compound 58], the inhibition at 1000 ppm in series [1] is 74%; in series [4], 42%. The values for the inhibition in vivo at 10 mg/kg in series [2] (setting [5]) and in series [2] (setting [6]) were 70% and 51%, respectively.

Turning to `CS(=O)(=O)Nc1ncc(C(F)(F)F)cc1NC(=O)Cc1ccccc1` [compound 60], in the series on carrageenin edema, the “Inhibition rate (%)” value was determined as 27%. In addition, the median lethal dose (LD50) at 168 h in series [3] is > 60 mg/kg. Further, the inhibition in vivo at 10 mg/kg was found to be 92% in series [2] (setting [5]) and 94% in series [2] (setting [6]). The inhibition at 1000 ppm in series [4] amounted to 41%.

Consider `CS(=O)(=O)Nc1ncc(C(F)(F)F)cc1NC(=O)Cc1cccs1` [compound 61], for which, in series [3], the LD50 at 168 h is > 80 mg/kg. For the same compound, the inhibition in vivo at 10 mg/kg in series [2] (setting [5]) was found to be 79%; in series [2] (setting [6]) it was 64%. Also, the inhibition at 1000 ppm in series [4] stood at 36%.

Take `CS(=O)(=O)Nc1ncc(C(F)(F)F)cc1NC(=O)C1CC=CCC1` (stereo not shown) [compound 68]: the LD50 at 168 h in series [3] was > 80 mg/kg. Further, the inhibition in vivo at 10 mg/kg worked out at 74% in series [2] (setting [5]) and 77% in series [2] (setting [6]). In addition, the inhibition at 1000 ppm in series [4] turned out to be 81%.

Turning to `O=C(Nc1cc(C(F)(F)F)cnc1NS(=O)(=O)C(F)(F)F)C1CCCCC1` [compound 91], in the series with carrageenin edema, the “Inhibition rate (%)” value came to 23%. In series [3], the LD50 at 168 h is > 80 mg/kg. Further, the inhibition at 1000 ppm in series [4] was determined as 81%.

As a reminder, the inhibition is the percentage by which the read-out fell short of the control. The term LD50 denotes the dose expected to kill half of the subjects tested.
